Experimental data published in patent US4913907A, “Porphycene anti-cancer agents and treatment methods” (Cytopharm, Inc., priority 1988, dated 1990).
Read-outs that look alike come from different tables or passages of the source.

Experiments:
MS-2 fibrosarcoma = assay: Phototherapy of tumor-bearing mice, tumor response; format: in vivo, Female Balb/c mice
Procedure: By the seventh day after transplantation, the tumors had reached a diameter of approximately 0.8 cm.
(§1) Each mouse was intravenously injected with 2 mg./kg. of 2,7,12,17-tetra-n-propylporphycene (TPP) incorporated into small umilamellar liposomes of dipalmitoyl-phosphatidylcholine (DPPC), prepared according to the procedures of Example 2, on the seventh day after transplantation. At this time the diameter of the tumor was approximately 0.8 cm.
(§2) 24 hours after TPP injection, the tumor area was exposed to 600-690 nm. light isolated by optical filtration from the emission of a 250 W quartz-halogen lamp through a set of optical filters (Teclas, Lugano, Switzerland). The light beam was focused into a bundle of optical fibers having an external diameter of 6 mm. The tip of the fiber was kept at a distance of 1 cm from the tissue surface. The lamp was operated at a dose-rate of 230 mW/cm^2, and the total delivered light dose was 150 J/cm^2 or 300 J/cm^2.

normal skin = assay: Phototherapy, photoinduced damage of irradiated normal skin; format: in vivo, Female Balb/c mice
Procedure: as §1, §2
An equal area of normal skin on the left hind leg was irradiated in each mouse immediately after tumor irradiation using an identical protocol.

[1] = Tissue analysis: recovery of TPP from serum and tissues after injection; format: in vivo, mice; conditions: 2 mg/kg; for concentration at 3 h / concentration at 24 h: mouse, iv, average of 6 mice, maximum deviation ±20%; for concentration at 3 h: 3 hours after injection; for concentration at 24 h: 24 hours after injection
Procedure: At each of 3 hours and 24 hours after injection, six mice were sacrificed by exposure to ether vapor, and the serum or specific tissue were removed. About 2 mL of blood was taken intracardially and centrifuged for 15 minutes at 3,000 rpm to remove the erythrocytes. The serum was collected, diluted with 2% aqueous SDS and assayed for TPP content spectrophotofluorimetrically (λex =560 nm). The fluorescence emitted in the 580-740 nm interval was converted into TPP concentration by interpolation with a calibration plot.
The tumor and predetermined normal tissues were removed, washed twice with PBS, and a weighed amount of tissue (approximately 200 mg) was finely minced and homogenized in a Potter vessel with 4 mL chloroform. The dispersion was centrifuged at 3,000 rpm for 15 minutes; the supernatant was collected and its TPP content was estimated spectrophotofluorimetrically as described above. Rehomogenization of the sediment under the same conditions gave less than 3% of the TPP extracted in the original step. […]
The recovery of TPP from serum and various tissues of the tumor-bearing mice at 3 hours and 24 hours after injection are shown in Table 1. The samples from each animal were analyzed separately, and are table values represent the average recovery data from the single tissues of 6 mice. The maximum deviation from the reported values was ±20%.

[2] = Distribution and clearance in a mouse model (statement in the description); format: in vivo
[3] = cited from earlier work
Solubility = format: physicochemical
[4] = 2 mg/kg i.v., 300 J/cm^2 at 24 hours after TPP injection
[5] = brain, read-out: Recovery, brain
[6] = liver, read-out: Recovery, liver
[7] = muscle, read-out: Recovery, muscle
[8] = tumor, read-out: Recovery, tumor

CCCC1=Cc2nc1ccc1[nH]c(cc1CCC)c1nc(ccc3[nH]c2cc3CCC)C(CCC)=C1 [TPP, 2,7,12,17-tetra-n-propylporphycene]
onset of tumor necrosis (MS-2 fibrosarcoma; 2 mg/kg i.v. in DPPC liposomes, 300 J/cm^2 of 600-690 nm light at 24 hours after TPP injection): massive tumor necrosis
tumor necrosis (MS-2 fibrosarcoma; 2 mg/kg i.v., 150 J/cm^2 of red light at 24 hours after TPP injection): equally deep necrosis, however less extensive
eschar formation complete within (MS-2 fibrosarcoma; [4]): ≤ 3 days
time until depth of necrosis reached bone (MS-2 fibrosarcoma; [4]): about 7 days
erythema, disappearance (normal skin; irradiated TPP-treated mice): disappeared within about one week
photoinduced damage at the level of the normal skin (normal skin; irradiated TPP-treated mice, most animals, mainly erythema): developed some photoinduced damage at the level of the normal skin
erythema, diameter (normal skin; irradiated TPP-treated mice, generally): less than 0.3 cm
photosensitivity at the irradiated normal skin (normal skin; left hind leg, identical irradiation protocol): Some photosensitivity was also observed
concentration at 3 h [1, 5]: < 10 ng/g
concentration at 24 h [1, 5]: < 10 ng/g
concentration at 3 h ([1]; kidneys, read-out: Recovery, kidneys): 1250 ng/g
concentration at 3 h [1, 6]: 13000 ng/g
concentration at 24 h [1, 6]: 11100 ng/g
concentration at 3 h [1, 7]: 140 ng/g
concentration at 24 h [1, 7]: 90 ng/g
concentration at 24 h ([1]; serum, read-out: Recovery, serum): 25600 ng/mL
concentration at 3 h ([1]; skin, read-out: Recovery, skin): 290 ng/g
concentration at 24 h ([1]; skin, read-out: Recovery, skin): 440 ng/g
concentration at 24 h ([1]; spleen, read-out: Recovery, spleen): 2940 ng/g
concentration at 3 h [1, 8]: 690 ng/g
concentration at 24 h [1, 8]: 1500 ng/g
recovery from the tumor ([1]; tumor tissue, time not stated): approximately 1 μg/g
tumor uptake as compared to skin or muscle tissue ([2]; 24 hours post-injection): concentrate preferentially in tumor tissue as compared to skin or muscle tissue
drug clearance route ([2]; mouse model): via the liver rather than by the kidneys
uptake by the brain ([2]; mouse model): little or no porphycene uptake by the brain
absorption above 620 nm [3]: high absorption above 620 nm

C1=Cc2nc1ccc1ccc([nH]1)c1nc(ccc3ccc2[nH]3)C=C1 [porphycene]
solubility in water and pharmaceutically suitable solvents (Solubility): not soluble in water and pharmaceutically suitable solvents
absorption above 620 nm [3]: high absorption above 620 nm
